According to patent US20070117834A1, “Methods and compositions for treating Huntington's disease” (priority 2005, published 2007):
“Also recorded” adds a separate entry of the source.

How the values were obtained:
[1] = test system: transgenic Drosophila engineered to express the mutant huntingtin protein in all their neurons; conditions: historical reference; cited from earlier work
[2] = test system: transgenic Drosophila engineered to express the mutant huntingtin protein in all their neurons; assay: Inhibition of mutant huntingtin-induced neurodegeneration of photoreceptor neurons in Drosophila eyes (pseudopupil scoring); type: in vivo; conditions: for rescue of photoreceptor neurons / rescue of photoreceptor neurons compared to untreated controls: FIG. 2; for rescue of photoreceptor neurons compared to untreated controls: 7 days on drug-containing food; for suppression of photoreceptor neuron degeneration, retest: FIG. 3; for protection of photoreceptors, overall statement: in vivo
Procedure: Dimebon was administered to one group of transgenic Drosophila engineered to express the mutant huntingtin protein in all their neurons. This was accomplished by cloning a foreign gene into transposable p-element DNA vectors under control of a yeast upstream activator sequence that is activated by the yeast GAL4 transcription factor. These promoter fusions were injected into fly embryos to produce transgenic animals. The foreign gene is silent until crossed to another transgenic strain of flies expressing the GAL4 gene in a tissue specific manner. The Elav>Gal4 which expresses the transgene in all neurons from birth until death was used in the experiments described.
For compound testing, 20-30 Httex1pQ93 virgins were mated to elav>Gal4 males and eggs were collected for about 20 hours at 25° C. and dispensed into vials (expected about 70% lethality from Htt effects). Upon eclosion, at least 80, 0-8 hour old flies were harvested and place on drug-containing food (20 eclosed adults per vial) and scored when 7 days old. Inhibitor-containing food was prepared just before tester flies began to emerge.
The two types of transgenic animals were crossed in order to collect enough closely matched aged controls to study. The crossed aged-matched adults (about 20 per dosing group) were placed on drug-containing food for 7 days. Animals were transferred to fresh food daily to minimize any effects caused by instability of the compounds. Survival was scored daily. The average number of photoreceptors at day zero was determined by scoring 7-10 of the newly eclosed tester siblings within six hours of eclosing. This established the baseline of degeneration at the time of exposure to drug. At day 7, animals were sacrificed and the number of photoreceptor neurons surviving was counted. […] For pseudopupil analysis, flies were decapitated and the heads are mounted in a drop of nail polish on a microscopic slide. The head was then covered with immersion oil and light is projected through the eye of the fly using a Nikon EFD-3/Optiphot-2 compound microscope with a 50× oil objective.

[3] = test system: wildtype Drosophila fruit flies; assay: Toxicity of dimebon in wildtype Drosophila (eclosion number and timing); type: in vivo
Procedure: Dimebon was evaluated for toxicity levels in wildtype Drosophila fruit flies. Dimebon was administered daily at doses ranging from 10 μM to 1 mM to explore its toxicity. An untreated control group was also studied in this experiment. The concentrations given were concentrations of dimebon in the food that animals drink/eat ad libitum. The food consisted of cornmeal (61.2 g), dextrose (129.4. g), yeast (32.4 g) and agar (9.3 g) in 1 liter of water. Concentrated compounds were added to melted agar food cooled to just above the point of setting (about 40° C.), mixed and dispensed.
About 500 wild type Drosophila eggs were collected on grape juice plates for 20 hours, washed with distilled water and transferred 100 per vial to grow at 25 degrees C. The adult progeny were scored after eclosing (emerging from the pupal case) beginning 10 days later to assess developmental delay and toxicity. The criteria used for toxicity were the number (%) of animals that eclose and the time of the eclosing. For example, fewer animals may emerge from the pupal case if a drug is toxic or the same number of animals may eclose but more slowly than the untreated control group.
The toxicity test employed five concentrations (10 μM, 30 μM, 100 μM, 300 μM, 1 mM) plus an untreated control and was repeated with five sets of flies. […] At 1 mM, there was approximately a 20% decrease in eclosion observed, indicating toxicity at this food concentration. ANOVA analysis indicated a significant difference between datasets (p=0.0031), with post-hoc testing indicating a significant difference between the control and 1 mM datasets (p<0.01).

[4] = test system: transgenic Drosophila engineered to express the mutant huntingtin protein in all their neurons; assay: Motor ability (climbing assay) in the Drosophila model; type: in vivo; conditions: for numbers surviving to be tested at day 7: initial number of 20 animals at day 0
Procedure: The motor function of Drosophila obtained as described in the examples above was assessed by exploiting the strong negative geotropism of flies to climb upwards when they are tapped to the bottom of a vial. See, Le Bourg and Lint (1992) Hypergravity and aging in Drosophila melanogaster. 4. […] activity. Gerontology 38, 59-64. Animals were placed in a graduated vessel (e.g., a measuring cylinder). The distance climbed in 10 seconds was measured for each animal over 3 trials with a 5 minute rest period. In a separate experiment using tall thin plastic tubes rather than glass vials, the distance climbed in 30 seconds was also measured. Animals were scored for outcome without knowledge of treatment group. Flies were tested for functional rescue using a behavior assay (climbing assay) where the distance climbed was measured. […] In this assay, climbing was scored blind and each animal was given 3 trials that were then averaged. The climbing of 7 day old animals reared on 0, 10, 100 or 1,000 μM containing food was compared as was the climbing of animals on the day of eclosion. Two trials were performed. In the first, the ability to climb in large glass vials was monitored over 10 seconds. […] The second trial was similar to the first except that animals were tested in tall thin plastic tubes for climbing over 30 seconds. […] The data from the two independent climbing trials are plotted as individual data points in FIG. 6A and 6B. A higher statistical power (e.g., 0.8) given the observed standard deviations and differences of the means may be achieved by doubling the size of the experiment for the highest concentration and increasing about 10 fold for the lower concentrations.

| Compound | rescue of photoreceptor neurons, historical positive control [1] | rescue of photoreceptor neurons ([2]; 10 μM) | rescue of photoreceptor neurons compared to untreated controls ([2]; 100 μM, dihydrochloride) | rescue of photoreceptor neurons compared to untreated controls ([2]; 100 μM, listed as Dimebon, dihydrochloride) | suppression of photoreceptor neuron degeneration, retest ([2]; 100 μM, dihydrochloride) | rescue of photoreceptor neurons ([2]; 1 mM) | suppression of photoreceptor neuron degeneration, lower concentrations ([2]; 1, 10 and 30 μM, FIG. 4, dihydrochloride) | suppression of photoreceptor neuron degeneration, retest ([2]; higher doses (300 or 1,000 μM)) | protection of photoreceptors, overall statement ([2]; dihydrochloride) | protection of photoreceptors, overall statement ([2]; listed as Dimebon, dihydrochloride) | previously measured optimum concentration ([2]; photoreceptor rescue) [µM] | timing of emergence slowed ([3]; 1 mM) | decrease in eclosion ([3]; 1 mM in the food) [%] | toxicity (tolerability) ([3]; 10 to 300 μM in the food, below 1 mM, dihydrochloride) | toxicity in Drosophila, overall statement ([3]; FIG. 1 / experimental summary) | numbers surviving to be tested at day 7 ([4]; 10 μM) | numbers surviving to be tested at day 7 ([4]; 100 μM) | climbing behavior over 10 seconds ([4]; 1 mM (1000 μM), 7 day old animals, glass vials, FIG. 5, dihydrochloride) | numbers surviving to be tested at day 7 ([4]; 1 mM) | climbing behavior over 30 seconds ([4]; 10, 100 or 1,000 μM, tall thin plastic tubes, second trial, dihydrochloride) |
| --- | --- | --- | --- | --- | --- | --- | --- | --- | --- | --- | --- | --- | --- | --- | --- | --- | --- | --- | --- | --- |
| C[C@@H](N)[C@H]1CC[C@H](C(=O)Nc2ccncc2)CC1 [Y-27632] | strongly rescuing |  |  |  |  |  |  |  |  |  |  |  |  |  |  |  |  |  |  |  |
| Cc1ccc2c(c1)c1c(n2CCc2ccc(C)nc2)CCN(C)C1.Cl.Cl [dimebon, 2,8-dimethyl-5-(2-(6-methyl-3-pyridyl)-ethyl)-2,3,4,5-tetrahydro-1H-pyrido[4,3-b]indole dihydrochloride] |  | lesser but still apparent rescue of neurons | statistically significant (p=0.0014) rescue of neurons | significant suppression of neuronal degeneration | significant improvement; also recorded: significant rescue | still appeared to cause neuronal rescue, but to a lesser extent | no statistically significant improvement; also recorded: modest tendency for improved photoreceptor numbers | no statistically demonstrable improvement | effective in inhibiting mutant huntingtin-induced neurodegeneration | protect photoreceptors in a dose-dependant manner | 100 | approximately 1 day | ~20 | generally well tolerated; also recorded: no significant toxicity | minimal toxicity | 8 | 12 | significant difference between the control and 1000 μM; also recorded: statistically significant improvement in climbing; also recorded: statistical difference between D7ND and 1 mM | 8 | No statistically demonstrable difference between treated and control groups |
